According to patent publication US10816493B2, “Electrical measurement method, electrical measurement device, and blood condition analysis system” (SONY CORPORATION, priority 2015, dated 2020):

System: blood coagulation
Test: Permittivity measurement over time of blood samples with calcium chloride added (coagulation start-indicating parameter)
Type: cell-based
Method: Experimental Example 2 was performed to determine whether and how the results of measurement of an electrical characteristic differ between a case using a compound having an inhibitory effect on blood sedimentation and having no influence on the electrical characteristic parameter used for analysis and a case using a compound having an influence on the electrical characteristic parameter. In this experimental example, permittivity was used as an example of the electrical characteristic. In addition, a coagulation start-indicating parameter for use in blood coagulation analysis was focused on as an example of the electrical characteristic parameter for use in analysis. Furthermore, in Experimental Example 2, measurement was performed on blood samples containing citric acid added as an anticoagulant with calcium chloride added as a blood coagulation […].
Carboxymethyl dextran as an example of the blood sedimentation inhibitor was dissolved at a concentration of 10% w/v in PBS. The carboxymethyl dextran-containing PBS solution was added in an amount of 10% to a whole blood sample with a high blood sedimentation rate, so that a sample of Example 3 was obtained.
A control sample was prepared by adding a blood sedimentation inhibitor-free PBS in an amount of 10% to the same whole blood sample as in Example 3.
Betaine was dissolved at a concentration of 10% w/v in PBS. The resulting blood sedimentation inhibitor-containing PBS solution was added in an amount of 10% to a blood sample with sedimentation abnormalities, prepared by a method similar to that in Experimental Example 1, so that a sample of Comparative Example 3 was obtained.
A control sample was prepared by adding a blood sedimentation inhibitor-free PBS in an amount of 10% to a blood sample with sedimentation abnormalities, prepared by a method similar to that in Experimental Example 1.
The permittivity of 180 μL of each of the samples of Example 3, Control for Example, Comparative Example 3, and Control for Comparative Example, prepared as described above, was measured at a frequency of 1 MHz over time.

SMILES: C[N+](C)(C)CC(=O)O [Comparative Example 3, Betaine]
- analysis of blood coagulation start time using a parameter indicating the time at which coagulation started (10% w/v in PBS added in an amount of 10%, citric acid plus calcium chloride, permittivity at 1 MHz): impossible to extract any parameter indicating the coagulation start time
- signal behavior compared with the control sample (10% w/v in PBS added in an amount of 10%, citric acid plus calcium chloride, permittivity at 1 MHz, FIGS. 6 and 7): completely different from that of the control sample
- adverse effect on the analysis (usability as blood sedimentation inhibitor) (blood coagulation analysis based on permittivity): has an adverse effect on the analysis
- inhibitory effect on blood sedimentation (in words) (suggested from results of Experimental Example 2): have an inhibitory effect on blood sedimentation
